Laboratory results taken from patent US12485089B1, “Adhering lozenge with high amount of sparsely soluble active ingredient” (Quest Products, LLC, priority 2025, dated 2025).

Assay: Time to complete dissolution of compressed tablets of bulking agents/compression binders in water
Assay type: physicochemical
Settings: 750 mg tablet, 12 mm diameter, pressed at 32 kN, 1.5 L water in 2 L beaker, room temperature (69° F.)
Text: To compare the speed of dissolution of any ingredients acting as a binder and/or bulking agent to the speed of dissolution of isomalt, a tablet can be formed of each and the time of dissolution for each can be measured. As used herein, the term “rate of dissolution” when comparing one or more binder and bulking agent ingredients to isomalt refers to the following procedure. The tablets should have the same diameter, shape, and weight and should be prepared by pressing with the same compression force (e.g., 32 kN) using a tablet press. Two equal beakers (e.g., 2 L) each containing an equal amount of distilled water (e.g., 1.5 L) and each at the same room temperature (i.e., at 69° F.) and atmospheric pressure are prepared. One tablet containing isomalt (commercially available FCC or USP grade isomalt particles) is placed in one of the beakers of water. The other tablet formed of the test binder and/or bulking agent are placed in the other of the beakers of water. The two beakers are then visually observed to determine which of the tablets dissolves completely first.
To identify suitable bulking agents and compression binders that dissolve quickly enough to allow suitable release of the preferred amount of antacid particles having low solubility in saliva, tablets of equal diameter (12 mm) and a weight of 750 mg±4 mg were made with commercially available particles of the bulking agents and/or compression binders listed in the table below, each compressed using a tablet press by placing the ingredients in a die and pressing with an equal pressure of 32 kN±3 kN to form the tablets. The tablets were simultaneously placed in equal size beakers (2 L) each containing an equal amount of water (1.5 L±15 mL) at room temperature (69° F.) and the time to complete dissolution was measured for each tablet. The dissolution times are shown below.

Row | Compound | Dissolution time
1 | Isomalt | 38 min
2 | OC[C@@H](O)[C@@H](O)[C@H](O)[C@@H](O)CO [Sorbitol] | 20 min
3 | OC[C@@H](O)[C@@H](O)[C@H](O)[C@H](O)CO [Mannitol] | 50 min
4 | OC[C@@H](O)[C@@H](O[C@H]1O[C@H](CO)[C@@H](O)[C@H](O)[C@H]1O)[C@H](O)[C@@H](O)CO [Maltitol] | 29 min
